# Assay results: ChEMBL document CHEMBL1201862, “PubChem BioAssay data set” (2004)
#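 Exposure lasted 48 hours, with cells grown in 96-well plates and compounds tested at five concentrations. GI50 = concentration required for 50% inhibition of growth.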 Active and inactive are the calls of the source. No stated cut-off is given here; in the data, active = GI50 up to about 1.1 µM and inactive = higher. Numbered stars: 1 amine (or outer) side, 2 acyl side, 3 side chain; on linkers, the order of the positions; unused ones are H or OH. Square brackets hold non-standard residues; d marks the D form. Peptide text beside a SMILES is read from it. * marks the point of attachment. X30 = CC(=O)N(C)SCC(N[*:1])C(=O)[*:2]; Cbz = O=C(OCc1ccccc1)*; Bn = c1ccc(C*)cc1
# Legend:
# Test in all cases: NCI-60 cell line screen, 48 h
# CAKI-1 = test system: CAKI-1
# NCI-H226 = test system: NCI-H226
# A498 = test system: A498
# SF-268 = test system: SF-268
# HOP-62 = test system: HOP-62
# IGROV-1 = test system: IGROV-1
# SF-539 = test system: SF-539
# KM12 = test system: KM12
# NCI-H460 = test system: NCI-H460
# HCT-15 = test system: HCT-15
# 786-0 = test system: 786-0
# UO-31 = test system: UO-31
# DU-145 = test system: DU-145
# HOP-92 = test system: HOP-92
# NCI-H23 = test system: NCI-H23
# SK-MEL-2 = test system: SK-MEL-2
# ACHN = test system: ACHN
# EKVX = test system: EKVX
# BT-549 = test system: BT-549
# NCI-H522 = test system: NCI-H522
SMILES,GI50 (CAKI-1),GI50 (NCI-H226),GI50 (A498),GI50 (SF-268),GI50 (HOP-62),GI50 (IGROV-1),GI50 (SF-539),GI50 (KM12),GI50 (NCI-H460),GI50 (HCT-15),GI50 (786-0),GI50 (UO-31),GI50 (DU-145),GI50 (HOP-92),GI50 (NCI-H23),GI50 (SK-MEL-2),GI50 (ACHN),GI50 (EKVX),GI50 (BT-549),GI50 (NCI-H522)
N#Cc1c(Cl)cccc1Oc1ccc(S(=O)(=O)/N=C(\NN)Nc2ccc(Cl)cc2)cc1,33.3 µM (inactive),17.4 µM (inactive),32.4 µM (inactive),22.8 µM (inactive),21.1 µM (inactive),20.1 µM (inactive),17.7 µM (inactive),19.5 µM (inactive),19.2 µM (inactive),34.4 µM,23.8 µM (inactive),25.5 µM (inactive),25.5 µM (inactive),21.2 µM (inactive),24.3 µM (inactive),21.6 µM (inactive),31.9 µM (inactive),23.3 µM (inactive),25.1 µM (inactive),–
C=C(C)[C@@H]1C[C@H]2O[C@](O)(C(=C)CC(=O)/C=C(/C)C[C@@H]3OC(=O)[C@]24O[C@@H]34)[C@H]1O,> 100 µM (inactive),> 100 µM (inactive),> 100 µM (inactive),> 100 µM (inactive),> 100 µM (inactive),> 100 µM (inactive),> 100 µM (inactive),> 100 µM (inactive),> 100 µM (inactive),> 100 µM,> 100 µM (inactive),> 100 µM (inactive),> 100 µM (inactive),–,> 100 µM (inactive),> 100 µM (inactive),> 100 µM (inactive),> 100 µM (inactive),> 100 µM (inactive),> 100 µM (inactive)
CCOC(=O)/C(C#N)=N\Nc1ccc(-n2c(C)nc3ccc(Br)cc3c2=O)cc1,> 100 µM (inactive),79.8 µM (inactive),> 100 µM (inactive),68.5 µM (inactive),91.6 µM (inactive),41.9 µM (inactive),87.9 µM (inactive),40.3 µM (inactive),44.7 µM (inactive),47.9 µM,83.9 µM (inactive),30.5 µM (inactive),57.4 µM (inactive),> 100 µM (inactive),> 100 µM (inactive),> 100 µM (inactive),> 100 µM (inactive),87.1 µM (inactive),88.7 µM (inactive),–
O=C1OC(C2Cc3cc4c(cc3C2=O)CCC4)c2ccccc21 (centres undefined),> 100 µM (inactive),20.6 µM (inactive),25.9 µM (inactive),45.7 µM (inactive),65 µM (inactive),45.5 µM (inactive),27.9 µM (inactive),35.9 µM (inactive),40 µM (inactive),34.3 µM,80 µM (inactive),55.6 µM (inactive),93.1 µM (inactive),–,47.1 µM (inactive),65 µM (inactive),47.9 µM (inactive),49.5 µM (inactive),> 10 µM (inactive),50.4 µM (inactive)
CCC(C)N1CN(c2ccccc2)C2(CCN(CC3COc4ccccc4O3)CC2)C1=O (centres undefined),16.9 µM (inactive),21 µM (inactive),–,48 µM (inactive),19.4 µM (inactive),42.2 µM (inactive),17.8 µM (inactive),18.1 µM (inactive),–,19.7 µM,18 µM (inactive),10.8 µM (inactive),21.6 µM (inactive),–,22.9 µM (inactive),–,33.5 µM (inactive),14.9 µM (inactive),14.3 µM (inactive),22.8 µM (inactive)
CN(CC#N)C(=O)Cc1ccc([N+](=O)[O-])cc1,> 10 µM (inactive),> 10 µM (inactive),> 10 µM (inactive),> 10 µM (inactive),> 10 µM (inactive),> 10 µM (inactive),> 10 µM (inactive),> 10 µM (inactive),> 10 µM (inactive),> 10 µM,> 10 µM (inactive),> 10 µM (inactive),> 10 µM (inactive),–,> 10 µM (inactive),> 10 µM (inactive),> 10 µM (inactive),> 10 µM (inactive),> 10 µM (inactive),–
Cc1cc2c(c(C(=O)NCCC(=O)N[C@@H](C)C(=O)OCc3ccccc3)c1)Oc1c(cc(C)cc1C(=O)NCCC(=O)N[C@@H](C)C(=O)OCc1ccccc1)S2,> 100 µM (inactive),> 100 µM (inactive),> 100 µM (inactive),> 100 µM (inactive),> 100 µM (inactive),> 100 µM (inactive),–,> 100 µM (inactive),> 100 µM (inactive),> 100 µM,> 100 µM (inactive),> 100 µM (inactive),> 100 µM (inactive),–,> 100 µM (inactive),> 100 µM (inactive),> 100 µM (inactive),> 100 µM (inactive),> 100 µM (inactive),–
N#CC(C#N)=CNC(=S)Nc1ccc(S(=O)(=O)Nc2nccs2)cc1,> 100 µM (inactive),> 100 µM (inactive),> 100 µM (inactive),> 100 µM (inactive),> 100 µM (inactive),> 100 µM (inactive),> 100 µM (inactive),> 100 µM (inactive),> 100 µM (inactive),> 100 µM,> 100 µM (inactive),> 100 µM (inactive),> 100 µM (inactive),> 100 µM (inactive),> 100 µM (inactive),> 100 µM (inactive),> 100 µM (inactive),> 100 µM (inactive),> 100 µM (inactive),–
Cc1ccc2c(=O)c(C(=O)N(CCO)CCO)c[nH]c2n1,> 100 µM (inactive),> 100 µM (inactive),> 100 µM (inactive),> 100 µM (inactive),> 100 µM (inactive),> 100 µM (inactive),–,> 100 µM (inactive),> 100 µM (inactive),> 100 µM,> 100 µM (inactive),> 100 µM (inactive),> 100 µM (inactive),–,> 100 µM (inactive),> 100 µM (inactive),> 100 µM (inactive),> 100 µM (inactive),> 100 µM (inactive),> 100 µM (inactive)
Nc1ncnc2c1ncn2C1OC(COP(=O)(O)CP(=O)(O)O)C(O)C1O (centres undefined),> 100 µM (inactive),> 100 µM (inactive),> 100 µM (inactive),> 100 µM (inactive),> 100 µM (inactive),> 100 µM (inactive),> 100 µM (inactive),> 100 µM (inactive),–,> 100 µM,> 100 µM (inactive),> 100 µM (inactive),> 100 µM (inactive),–,> 100 µM (inactive),> 100 µM (inactive),> 100 µM (inactive),> 100 µM (inactive),> 100 µM (inactive),> 100 µM (inactive)
COC(=O)c1ccc(OCCn2nnc(C(=O)NN)c2C(=O)NN)cc1,> 100 µM (inactive),–,–,–,> 100 µM (inactive),–,–,> 100 µM (inactive),74 µM (inactive),> 100 µM,> 100 µM (inactive),> 100 µM (inactive),> 100 µM (inactive),> 100 µM (inactive),> 100 µM (inactive),> 100 µM (inactive),> 100 µM (inactive),> 100 µM (inactive),> 100 µM (inactive),–
NN/C(=N\S(=O)(=O)c1cc(Cl)c(Oc2ccc([N+](=O)[O-])cc2Cl)c(Cl)c1)Nc1ccc(Cl)cc1,17.9 µM (inactive),15.9 µM (inactive),22.8 µM (inactive),19.5 µM (inactive),18.4 µM (inactive),20.2 µM (inactive),14.7 µM (inactive),18.8 µM (inactive),15.8 µM (inactive),19.2 µM,18.2 µM (inactive),17.6 µM (inactive),19.2 µM (inactive),19.9 µM (inactive),16.5 µM (inactive),18 µM (inactive),23.7 µM (inactive),21.8 µM (inactive),18.4 µM (inactive),–
C[N+](C)(CCCn1ccnc1[N+](=O)[O-])CCCn1ccnc1[N+](=O)[O-],> 100 µM (inactive),> 100 µM (inactive),> 100 µM (inactive),> 100 µM (inactive),> 100 µM (inactive),> 100 µM (inactive),> 100 µM (inactive),> 100 µM (inactive),> 100 µM (inactive),> 100 µM,> 100 µM (inactive),> 100 µM (inactive),> 100 µM (inactive),–,> 100 µM (inactive),> 100 µM (inactive),> 100 µM (inactive),> 100 µM (inactive),69.8 µM (inactive),> 100 µM (inactive)
O=C1OC(c2ccc(O)c(Cl)c2)(c2ccc(O)c(Cl)c2)c2ccc(Br)c3cccc1c23.O=C1OC(c2ccc(O)c(Cl)c2)(c2ccc(O)c(Cl)c2)c2cccc3c(Br)ccc1c23,14.1 µM (inactive),17.7 µM (inactive),18.7 µM (inactive),14.2 µM (inactive),21.5 µM (inactive),18.9 µM (inactive),18.2 µM (inactive),24.1 µM (inactive),16.4 µM (inactive),24.8 µM,19 µM (inactive),19.4 µM (inactive),23.7 µM (inactive),9.53 µM (inactive),16.7 µM (inactive),19.6 µM (inactive),–,14 µM (inactive),21.5 µM (inactive),–
CC(=O)N(C)SCC(NC(=O)C(Cc1ccccc1)NC(=O)OCc1ccccc1)C(=O)NC(Cc1ccccc1)C(=O)NC(Cc1c[nH]c2ccccc12)C(=O)NC(CCCCNC(=O)OCc1ccccc1)C(=O)NC(C(=O)NC(CSN(C)C(C)=O)C(=O)NC(C(N)=O)C(C)OCc1ccccc1)C(C)OCc1ccccc1 (centres undefined) (Cbz-F[X30]FWK(Cbz)T(Bn)[X30]T(Bn)-NH2; configuration not given here),–,> 100 µM (inactive),–,> 100 µM (inactive),> 100 µM (inactive),> 100 µM (inactive),> 100 µM (inactive),40.9 µM (inactive),> 100 µM (inactive),> 100 µM,> 100 µM (inactive),> 100 µM (inactive),> 100 µM (inactive),72.1 µM (inactive),> 100 µM (inactive),> 100 µM (inactive),> 100 µM (inactive),> 100 µM (inactive),> 100 µM (inactive),–
